Experimental findings from US20230219965A1 (KSQ Therapeutics, Inc., priority 2020, published 2023) are described below.

Data set [1] concerns Ub-PCNA levels in the nucleus of ES2 cells (USP1 activity). Kind of data set: ES2 Ub-PCNA immunofluorescence (IF) assay. The conditions noted are these: ES2 cells, 3 hours, Ub-PCNA immunofluorescence, read-out: USP1 IC50 (Ub-PCNA). The class given is cell-based. The gist of the method:
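AC50 derived from percent Ub-PCNA-positive nuclei, positivity set by a 95% cutoff from untreated-well intensities. Readout by imaging immunofluorescence (anti-Ub-PCNA, DAPI nuclear mask) after methanol fixation. Compound exposure: 3 h at 37° C, 0.3% DMSO final, on cells plated overnight.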

For a further data set, the target named is USP1/UAF1 enzyme (Homo sapiens, UniProt O94782). Kind of data set: USP1/UAF1 deubiquitination assay (ubiquitin-rhodamine 110 substrate). The class given is biochemical. Particulars: read-out: USP1 IC50 (Ub-Rho). The gist of the method: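 Cleavage of 150 nM ubiquitin-rhodamine 110 by 0.05 nM USP1/UAF1 was followed as fluorescence (Ex480/Em540, kinetic, 30 min) in Tris-HCl pH 7.8 buffer with EDTA, BSA, DTT and Tween-20. Compounds, top 10 μM, were preincubated with enzyme 10 min; % inhibition against no-enzyme and DMSO wells gave four-parameter IC50s.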
USP1/UAF1 enzyme, sequence (O94782 whole entry): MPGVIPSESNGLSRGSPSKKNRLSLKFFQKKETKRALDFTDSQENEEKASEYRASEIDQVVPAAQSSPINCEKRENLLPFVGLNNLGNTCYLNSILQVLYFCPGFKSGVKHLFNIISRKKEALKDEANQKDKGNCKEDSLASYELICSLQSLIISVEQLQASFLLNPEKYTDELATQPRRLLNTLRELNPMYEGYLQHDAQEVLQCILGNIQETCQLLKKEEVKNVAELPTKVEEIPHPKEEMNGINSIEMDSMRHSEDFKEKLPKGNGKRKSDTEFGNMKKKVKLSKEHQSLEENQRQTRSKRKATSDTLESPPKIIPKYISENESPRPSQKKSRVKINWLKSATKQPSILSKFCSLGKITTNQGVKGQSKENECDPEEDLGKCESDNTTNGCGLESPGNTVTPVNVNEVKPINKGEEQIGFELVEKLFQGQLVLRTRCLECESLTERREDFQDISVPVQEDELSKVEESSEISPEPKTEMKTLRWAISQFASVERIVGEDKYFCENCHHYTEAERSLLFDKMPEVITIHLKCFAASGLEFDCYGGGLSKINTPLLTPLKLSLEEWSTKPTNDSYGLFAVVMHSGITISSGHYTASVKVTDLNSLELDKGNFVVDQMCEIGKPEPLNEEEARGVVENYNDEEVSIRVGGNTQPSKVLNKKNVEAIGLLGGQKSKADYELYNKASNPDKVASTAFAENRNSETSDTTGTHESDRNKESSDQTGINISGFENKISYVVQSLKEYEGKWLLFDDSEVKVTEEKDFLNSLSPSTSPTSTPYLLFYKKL
USP1/UAF1 enzyme, sequence (Q8TAF3 whole entry partner): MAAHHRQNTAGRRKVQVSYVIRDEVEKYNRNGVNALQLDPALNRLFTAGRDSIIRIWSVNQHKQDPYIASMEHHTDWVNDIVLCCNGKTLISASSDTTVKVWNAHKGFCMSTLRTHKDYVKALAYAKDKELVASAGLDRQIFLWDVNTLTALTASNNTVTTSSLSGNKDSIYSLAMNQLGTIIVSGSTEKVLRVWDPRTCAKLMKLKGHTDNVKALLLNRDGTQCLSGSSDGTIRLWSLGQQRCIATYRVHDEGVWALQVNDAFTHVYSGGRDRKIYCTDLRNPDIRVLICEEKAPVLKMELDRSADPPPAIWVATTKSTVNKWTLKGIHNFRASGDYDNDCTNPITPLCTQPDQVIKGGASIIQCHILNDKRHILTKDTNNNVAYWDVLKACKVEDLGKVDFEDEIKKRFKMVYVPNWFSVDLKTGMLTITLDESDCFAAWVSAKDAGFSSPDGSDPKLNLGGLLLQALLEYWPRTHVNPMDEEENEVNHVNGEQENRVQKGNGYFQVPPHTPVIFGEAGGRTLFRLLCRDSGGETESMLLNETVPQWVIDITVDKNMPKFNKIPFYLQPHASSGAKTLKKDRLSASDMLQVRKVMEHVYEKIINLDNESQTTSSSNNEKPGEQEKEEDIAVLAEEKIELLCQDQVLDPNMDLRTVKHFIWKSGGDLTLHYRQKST

The nature of data set [2]: Liver microsomal metabolic stability, rat liver microsomes (RLM). Particulars: 1 μM compound, 1 mg/mL microsomes, NADPH; for half-life at 1 μM: rat, liver microsomes, t1/2 (min) in RLM. Background: Liver microsomes are vesicles of endoplasmic reticulum, rich in cytochrome P450 enzymes.
Data set [3] in a line: Liver microsomal metabolic stability, human liver microsomes (HLM). Particulars: for half-life at 1 μM: human, liver microsomes.
Data set [4] in a line: ADME solubility determination in PBS at pH 2.0 and pH 7.4. In kind it is physicochemical. The conditions noted are these: for solubility at 24 h: phosphate buffered saline, 25 °C, thermodynamic from solid. The gist of the method: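 Solubility was read by LC-MS/MS on centrifuged supernatants, calibrated to a known-concentration standard and corrected for dilution. Compound, dried down from 10 mM DMSO stock, was equilibrated 24 h at 25° C with shaking in PBS at pH 2.0 or pH 7.4.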

Setting [5] is: pH 2, aqueous buffer, PBS pH 2.0, 25° C., read-out: Solubility at pH 2.0.
Where [6] appears, read: pH 7.4, aqueous buffer, PBS pH 7.4, 25° C., read-out: Solubility at pH 7.4.

A word on the IC50: it is the concentration at which inhibition is half-maximal. As a reminder, the half-life is the time in which the quantity being followed falls by half. The low end stands for fast loss, the high end for slow loss. The term solubility denotes the dissolved amount per volume that the medium holds.

SMILES strings stand for the structures. Read-outs that look alike come from different tables or passages of the source. A value given as a limit tells only on which side of the number the result lay.

As to `CCn1cc(C(F)(F)F)nc1-c1ccc(CN2CC(O)Cn3nc(-c4c(Cl)cnn4C(C)C)cc32)cc1F` (stereo not drawn) [Example 267, 2-(4-chloro-1-isopropyl-1H-pyrazol-5-yl)-4-(4-(1-ethyl-4-(trifluoromethyl)-1H-imidazol-2-yl)-3-fluorobenzyl)-4,5,6,7-tetrahydropyrazolo[1,5-α]pyrimidin-6-ol], the IC50 (in data set [1]; at USP1/UAF1 enzyme) was less than 100 nM in each case. Further, the “t1/2 (min) in RLM” value in data set [2] is recorded as “+ (“+” indicates less than 25 minutes)”. For the same compound, the “t1/2 (min) in HLM” value in data set [3] (human liver microsomes, 1 μM compound, 1 mg/mL microsomes, NADPH) is recorded as “+ (“+” indicates less than 25 minutes)”. Moreover, the “Solubility at pH 2.0 (μM)” value in data set [4] (PBS pH 2.0, 25° C., 24 hours) was “+ (“+” indicates less than 10 μM)”. Also, in data set [4] (PBS pH 7.4, 25° C., 24 hours), the “Solubility at pH 7.4 (μM)” value was “+ (“+” indicates less than 10 μM)”.

With `CCn1cc(C(F)(F)F)nc1-c1ccc(COC2CCCn3nc(-c4c(Cl)cnn4C(C)C)cc32)cc1` (stereo not drawn) [Example 270, 2-(4-chloro-1-isopropyl-1H-pyrazol-5-yl)-4-((4-(1-ethyl-4-(trifluoromethyl)-1H-imidazol-2-yl)benzyl)oxy)-4,5,6,7-tetrahydropyrazolo[1,5-α]pyridine], the half-maximal inhibitory concentration (IC50) in data set [1] (Homo sapiens, ES-2) is less than 100 nM; on USP1/UAF1 enzyme, less than 100 nM. Further, the half-life at 1 μM in data set [2] and in data set [3] was less than 25 min throughout. Besides, the solubility at 24 h in data set [4] (setting [5]) and in data set [4] (setting [6]) was less than 10 µM each time.

As to `CC(C)n1ncc(Cl)c1-c1cc2n(n1)CCC(=O)N2Cc1ccc(-c2ncccc2OC2CC2)c(Cl)c1` [Example 290], the IC50 in data set [1] (Homo sapiens, ES-2) was 100 to 500 nM; on USP1/UAF1 enzyme, less than 100 nM. Further, the half-life at 1 μM in data set [2] and in data set [3] was less than 25 min throughout. The solubility at 24 h in data set [4] (setting [5]) is no less than 10 µM; in data set [4] (setting [6]) it was less than 10 µM.

Consider `CC(C)Oc1cccnc1-c1ccc(CN2C(=O)CCn3nc(-c4c(Cl)cnn4C(C)C)cc32)cc1` [Example 291], for which the IC50 in data set [1] (Homo sapiens, ES-2) was 100 to 500 nM; at USP1/UAF1 enzyme, less than 100 nM. Further, the half-life at 1 μM in data set [2] and in data set [3] was less than 25 min throughout. The solubility at 24 h in data set [4] (setting [5]) and in data set [4] (setting [6]) was less than 10 µM in each case.

Consider `COc1ccc(C(F)(F)F)nc1-c1ccc(CN2C(=O)CCn3nc(-c4c(Cl)cnn4C(C)C)cc32)cc1Cl` [Example 294], for which the IC50 was less than 100 nM in data set [1] (Homo sapiens, ES-2) and less than 100 nM at USP1/UAF1 enzyme. Besides, the half-life at 1 μM is less than 25 min in data set [2] and greater than 25 min in data set [3]. Further, the solubility at 24 h in data set [4] (setting [5]) and in data set [4] (setting [6]) was less than 10 µM in each case.

As to `CC(C)n1ncc(Cl)c1-c1cc2n(n1)CCC(=O)N2Cc1ccc(-c2ncccc2N2CCOCC2)c(Cl)c1` [Example 296], the IC50 in data set [1] (Homo sapiens, ES-2) was 100 to 500 nM; on USP1/UAF1 enzyme, less than 100 nM. The half-life at 1 μM in data set [2] and in data set [3] was less than 25 min throughout. Further, the solubility at 24 h in data set [4] (setting [5]) was no less than 10 µM; in data set [4] (setting [6]), less than 10 µM.

As to `CC(C)Oc1cccnc1-c1ccc(CN2C(=O)CCn3nc(-c4c(Cl)cnn4C(C)C)nc32)cc1` [Example 304], the IC50 in data set [1] (Homo sapiens, ES-2) was 100 to 500 nM; at USP1/UAF1 enzyme, less than 100 nM. The half-life at 1 μM in data set [2] and in data set [3] was less than 25 min each time. For the same compound, the solubility at 24 h is no less than 10 µM in data set [4] (setting [5]) and less than 10 µM in data set [4] (setting [6]).

As to `COc1cccnc1-c1ccc(CN2C(=O)CCn3nc(-c4c(Cl)cnn4C(C)C)cc32)cc1` [Example 305], the half-inhibitory concentration (IC50) in data set [1] (Homo sapiens, ES-2) is 100 to 500 nM; on USP1/UAF1 enzyme it was less than 100 nM. Further, the half-life at 1 μM in data set [2] and in data set [3] was less than 25 min throughout. Also, the values for the solubility at 24 h in data set [4] (setting [5]) and in data set [4] (setting [6]) were no less than 10 µM and less than 10 µM, respectively.

Turning to `CCOc1cccnc1-c1ccc(CN2C(=O)CCn3nc(-c4c(Cl)cnn4C(C)C)cc32)cc1Cl` [Example 307], the IC50 is 100 to 500 nM in data set [1] (Homo sapiens, ES-2) and less than 100 nM on USP1/UAF1 enzyme. Also, the half-life at 1 μM in data set [2] and in data set [3] was less than 25 min in each case. Further, the solubility at 24 h in data set [4] (setting [5]) and in data set [4] (setting [6]) was less than 10 µM throughout.
